Measurements as given in ChEMBL document CHEMBL3046894, “Synthesis and Herbicidal Activity of Pyrimidinyl Salicylic and Thiosalicylic Acids” (J Pestic Sci, 1996).
Activity calls are given as the source filed them.

Tests used:
Glycine max [1] = test: Pre-emergence phytotoxicity against Glycine max (soybean) assessed as mortality at 200 g a.i/10 a; assay type: organism-based; details: in vivo, other
Echinochloa crus-galli [2] = test: Pre-emergence herbicidal activity against Echinochloa crus-galli (barnyard grass) assessed as mortality at 200 g a.i/10 a; assay type: functional, organism-based
Abutilon theophrasti [3] = test: Pre-emergence herbicidal activity against Abutilon theophrasti (velvetleaf) assessed as mortality at 200 g a.i/10 a; assay type: functional
Ipomoea lacunosa [4] = test: Pre-emergence herbicidal activity against Ipomoea lacunosa assessed as mortality at 200 g a.i/10 a; assay type: functional
Xanthium strumarium [5] = test: Pre-emergence herbicidal activity against Xanthium strumarium (cocklebur) assessed as mortality at 200 g a.i/10 a; assay type: functional, organism-based
Abutilon theophrasti [6] = test: Pre-emergence herbicidal activity against Abutilon theophrasti (velvetleaf) assessed as mortality at 100 g a.i/10 a; assay type: functional
Ipomoea lacunosa [7] = test: Pre-emergence herbicidal activity against Ipomoea lacunosa assessed as mortality at 100 g a.i/10 a; assay type: functional
Echinochloa crus-galli [8] = test: Pre-emergence herbicidal activity against Echinochloa crus-galli (barnyard grass) assessed as mortality at 100 g a.i/10 a; assay type: functional
[9] = Pre-emergence phytotoxicity against Glycine max (soybean) assessed as mortality at 100 g a.i/10 a; assay type: organism-based; details: in vivo
Xanthium strumarium [10] = test: Pre-emergence herbicidal activity against Xanthium strumarium (cocklebur) assessed as mortality at 100 g a.i/10 a; assay type: functional
Cyperus iria [11] = test: Pre-emergence herbicidal activity against Cyperus iria assessed as growth inhibition at 25 g a.i/10 a; assay type: functional, organism-based
Ipomoea lacunosa [12] = test: Post-emergence herbicidal activity against Ipomoea lacunosa assessed as mortality at 6.3 g a.i/10 a applied 11 days after germination as foliar spray; assay type: functional; details: 264 h
Amaranthus retroflexus [13] = test: Pre-emergence herbicidal activity against Amaranthus retroflexus assessed as mortality per 10 acre; assay type: functional
Gossypium hirsutum [14] = test: Pre-emergence phytotoxicity against Gossypium hirsutum (cotton) assessed as mortality at 1.6 g a.i/10 a; assay type: organism-based; details: in vivo, other
[15] = Pre-emergence phytotoxicity against Zea mays (maize) assessed as mortality at 1.6 g a.i/10 a; assay type: organism-based; details: in vivo, 1.6 g a.i/10 a, read-out: mortality
Persicaria nodosa [16] = test: Post-emergence herbicidal activity against Persicaria nodosa assessed as growth inhibition at 25 g a.i/10 a applied 11 days after germination as foliar spray; assay type: functional, organism-based
Xanthium strumarium [17] = test: Pre-emergence herbicidal activity against Xanthium strumarium (cocklebur) assessed as mortality per 10 acre; assay type: functional
Persicaria nodosa [18] = test: Pre-emergence herbicidal activity against Persicaria nodosa assessed as mortality per 10 acre; assay type: functional
Digitaria sanguinalis [19] = test: Pre-emergence herbicidal activity against Digitaria sanguinalis (hairy crabgrass) assessed as growth inhibition at 25 g a.i/10 a; assay type: functional, organism-based
Echinochloa crus-galli [20] = test: Pre-emergence herbicidal activity against Echinochloa crus-galli (barnyard grass) assessed as mortality at 6.3 g a.i/10 a; assay type: functional; details: Echinochloa crus-galli, pre-emergence
Echinochloa crus-galli [21] = test: Post-emergence herbicidal activity against Echinochloa crus-galli (barnyard grass) assessed as mortality at 6.3 g a.i/10 a applied 11 days after germination as foliar spray; assay type: functional; details: 264 h
Echinochloa crus-galli [22] = test: Pre-emergence herbicidal activity against Echinochloa crus-galli (barnyard grass) assessed as mortality per 10 acre; assay type: functional
Cyperus iria [23] = test: Post-emergence herbicidal activity against Cyperus iria assessed as growth inhibition at 25 g a.i/10 a applied 11 days after germination as foliar spray; assay type: functional, organism-based
Persicaria nodosa [24] = test: Pre-emergence herbicidal activity against Persicaria nodosa assessed as growth inhibition at 25 g a.i/10 a; assay type: functional, organism-based
Gossypium hirsutum [25] = test: Post-emergence phytotoxicity against Gossypium hirsutum (cotton) assessed as mortality at 1.6 g a.i/10 a applied 11 days after germination as foliar spray; assay type: organism-based; details: in vivo, other, 264 h
Gossypium hirsutum [26] = test: Pre-emergence phytotoxicity against Gossypium hirsutum (cotton) assessed as mortality at 6.3 g a.i/10 a; assay type: organism-based; details: in vivo, other
Gossypium hirsutum [27] = test: Post-emergence phytotoxicity against Gossypium hirsutum (cotton) assessed as mortality at 6.3 g a.i/10 a applied 11 days after germination as foliar spray; assay type: organism-based; details: in vivo, other, 264 h
Chenopodium album [28] = test: Pre-emergence herbicidal activity against Chenopodium album assessed as growth inhibition at 25 g a.i/10 a; assay type: functional, organism-based
[29] = Pre-emergence phytotoxicity against Glycine max (soybean) assessed as mortality at 6.3 g a.i/10 a; assay type: organism-based; details: in vivo, 6.3 g a.i/10 a, read-out: mortality
Persicaria nodosa [30] = test: Post-emergence herbicidal activity against Persicaria nodosa assessed as mortality per 10 acre; assay type: functional
Glycine max [31] = test: Pre-emergence phytotoxicity against Glycine max (soybean) assessed as mortality at 1.6 g a.i/10 a; assay type: organism-based; details: in vivo, other
[32] = Post-emergence phytotoxicity against Zea mays (maize) assessed as mortality at 1.6 g a.i/10 a applied 11 days after germination as foliar spray; assay type: organism-based; details: in vivo, 1.6 g a.i/10 a
Gossypium hirsutum [33] = test: Pre-emergence phytotoxicity against Gossypium hirsutum (cotton) assessed as mortality per 10 acre; assay type: organism-based; details: in vivo
Amaranthus retroflexus [34] = test: Pre-emergence herbicidal activity against Amaranthus retroflexus assessed as growth inhibition at 25 g a.i/10 a; assay type: functional, organism-based
Abutilon theophrasti [35] = test: Pre-emergence herbicidal activity against Abutilon theophrasti (velvetleaf) assessed as mortality at 6.3 g a.i/10 a; assay type: functional; details: Abutilon theophrasti, pre-emergence
[36] = Post-emergence phytotoxicity against Glycine max (soybean) assessed as mortality at 1.6 g a.i/10 a applied 11 days after germination as foliar spray; assay type: organism-based; details: in vivo, 1.6 g a.i/10 a
Echinochloa crus-galli [37] = test: Post-emergence herbicidal activity against Echinochloa crus-galli (barnyard grass) assessed as mortality per 10 acre; assay type: functional
Chenopodium album [38] = test: Post-emergence herbicidal activity against Chenopodium album assessed as growth inhibition at 25 g a.i/10 a applied 11 days after germination as foliar spray; assay type: functional, organism-based
Echinochloa crus-galli [39] = test: Post-emergence herbicidal activity against Echinochloa crus-galli (barnyard grass) assessed as growth inhibition at 25 g a.i/10 a applied 11 days after germination as foliar spray; assay type: functional, organism-based
Ipomoea lacunosa [40] = test: Post-emergence herbicidal activity against Ipomoea lacunosa assessed as mortality per 10 acre; assay type: functional
Abutilon theophrasti [41] = test: Post-emergence herbicidal activity against Abutilon theophrasti (velvetleaf) assessed as mortality at 1.6 g a.i/10 a applied 11 days after germination as foliar spray; assay type: functional; details: 264 h
Digitaria sanguinalis [42] = test: Post-emergence herbicidal activity against Digitaria sanguinalis (hairy crabgrass) assessed as growth inhibition at 25 g a.i/10 a applied 11 days after germination as foliar spray; assay type: functional, organism-based
Ipomoea lacunosa [43] = test: Pre-emergence herbicidal activity against Ipomoea lacunosa assessed as mortality per 10 acre; assay type: functional
Xanthium strumarium [44] = test: Post-emergence herbicidal activity against Xanthium strumarium (cocklebur) assessed as mortality at 6.3 g a.i/10 a applied 11 days after germination as foliar spray; assay type: functional; details: 264 h
Echinochloa crus-galli [45] = test: Pre-emergence herbicidal activity against Echinochloa crus-galli (barnyard grass) assessed as growth inhibition at 25 g a.i/10 a; assay type: functional, organism-based
Gossypium hirsutum [46] = test: Post-emergence phytotoxicity against Gossypium hirsutum (cotton) assessed as mortality per 10 acre; assay type: organism-based; details: in vivo
Ipomoea lacunosa [47] = test: Pre-emergence herbicidal activity against Ipomoea lacunosa assessed as mortality at 1.6 g a.i/10 a; assay type: functional; details: Ipomoea lacunosa, pre-emergence
Xanthium strumarium [48] = test: Post-emergence herbicidal activity against Xanthium strumarium (cocklebur) assessed as mortality per 10 acre; assay type: functional
Amaranthus retroflexus [49] = test: Post-emergence herbicidal activity against Amaranthus retroflexus assessed as mortality per 10 acre; assay type: functional
Amaranthus retroflexus [50] = test: Post-emergence herbicidal activity against Amaranthus retroflexus assessed as growth inhibition at 25 g a.i/10 a applied 11 days after germination as foliar spray; assay type: functional, organism-based
Abutilon theophrasti [51] = test: Post-emergence herbicidal activity against Abutilon theophrasti (velvetleaf) assessed as mortality at 6.3 g a.i/10 a applied 11 days after germination as foliar spray; assay type: functional; details: 264 h
Ipomoea lacunosa [52] = test: Post-emergence herbicidal activity against Ipomoea lacunosa assessed as mortality at 1.6 g a.i/10 a applied 11 days after germination as foliar spray; assay type: functional; details: 264 h

CN(C)C(=O)Nc1cccc(C(F)(F)F)c1 [FLUOMETURON]
active: Activity (Echinochloa crus-galli [2])
Toxic: Activity (Glycine max [1])
inactive: Activity (Xanthium strumarium [5])
< 5%: mortality at 2000 g/ha (Abutilon theophrasti [3]) | mortality at 2000 g/ha (Ipomoea lacunosa [4]) | mortality at 1000 g/ha (Abutilon theophrasti [6]) | mortality at 1000 g/ha (Ipomoea lacunosa [7]) | mortality at 1000 g/ha (Echinochloa crus-galli [8]) | mortality [9] | mortality at 1000 g/ha (Xanthium strumarium [10])

COc1cc(OC)nc(Oc2cccc(Br)c2C(=O)O)n1
0.2 gAi: ED90 (Persicaria nodosa [30]) | ED20 (Gossypium hirsutum [46]) | ED90 (Amaranthus retroflexus [49])
0.8 gAi: ED90 (Ipomoea lacunosa [40])
> 90%: mortality at 63 g/ha (Ipomoea lacunosa [12]) | mortality [15] | mortality at 63 g/ha (Echinochloa crus-galli [20]) | mortality at 63 g/ha (Echinochloa crus-galli [21]) | mortality [29] | mortality at 264 h [32] | mortality at 63 g/ha (Abutilon theophrasti [35]) | mortality at 264 h [36] | mortality at 16 g/ha (Abutilon theophrasti [41]) | mortality at 63 g/ha (Xanthium strumarium [44]) | mortality at 63 g/ha (Abutilon theophrasti [51]) | mortality at 16 g/ha (Ipomoea lacunosa [52])
inactive: ED90 (Echinochloa crus-galli [37])
0.4 gAi: ED90 (Amaranthus retroflexus [13]) | ED90 (Persicaria nodosa [18])
Toxic: Activity (Gossypium hirsutum [25]) | Activity (Gossypium hirsutum [27]) | Activity (Glycine max [31]) | ED20 (Gossypium hirsutum [33])
Non-toxic: Activity (Gossypium hirsutum [14]) | Activity (Gossypium hirsutum [26])
25 gAi: ED90 (Xanthium strumarium [17]) | ED90 (Ipomoea lacunosa [43])
< 5%: mortality at 16 g/ha (Ipomoea lacunosa [47])
1.5 gAi: ED90 (Echinochloa crus-galli [22]) | ED90 (Xanthium strumarium [48])
active: growth inhibition (GI) (Cyperus iria [11]) | growth inhibition (GI) (Persicaria nodosa [16]) | growth inhibition (GI) (Digitaria sanguinalis [19]) | growth inhibition (GI) (Cyperus iria [23]) | growth inhibition (GI) (Persicaria nodosa [24]) | growth inhibition (GI) (Chenopodium album [28]) | growth inhibition (GI) (Amaranthus retroflexus [34]) | growth inhibition (GI) (Chenopodium album [38]) | growth inhibition (GI) (Echinochloa crus-galli [39]) | growth inhibition (GI) (Digitaria sanguinalis [42]) | growth inhibition (GI) (Echinochloa crus-galli [45]) | growth inhibition (GI) (Amaranthus retroflexus [50])
